Reference: US11124785B2, “Rothia subtilisins, S8A family proteases, as therapeutic enzymes for application in gluten intolerance disorders” (TRUSTEES OF BOSTON UNIVERSITY, priority 2016, dated 2021)
One block for each molecule: values may come before it.

Assays:
[1] = test system: Z-LPY-pNA; experiment: Hydrolysis of paranitroanilide-derivatized substrate Z-LPY-pNA; format: biochemical; details: five-fold increased enzyme concentrations (5 μg/ml) and longer incubation times
Protocol: FIG. 4A and FIG. 4B are representative graphs of the hydrolysis of the substrates: Suc-AAPF-pNA (SEQ ID NO: 4), Z-YPQ-pNA, and Z-LPY-pNA, each at 200 μM, by Rmep and subtilisin A, respectively, each at 1 μg/ml.
FIG. 4C show a representative graph of the hydrolysis of the substrate, LPY, by Rmep and subtilisin A at 5 μg/ml and extended incubation times.
Hydrolysis of paranitroanilide-derivatized substrates—Paranitroanilide (pNA)-derivatized tripeptide substrates were chemically synthesized at >90% purity (21st Century Biochemicals, Marlborough, Mass.). The substrates obtained were Z-YPQ-pNA, Z-QQP-pNA, Z-LPY-pNA, Z-PFP-pNA, Z-PPF-pNA, where Z=benzyloxycarbonyl, Y=tyrosine, P=proline, Q=glutamine, L=leucine, and F=phenylalanine Suc-AAPF-pNA (SEQ ID NO: 4) was obtained from Sigma, where Suc=N-succinyl and A=alanine. The peptides were dissolved in 75-100% DMSO at 10 mM, and were used at a final concentration of 200 μM in 50 mM TrisHCl pH 8.0. Purified Rothia enzyme or subtilisin A from Bacillus licheniformis (Sigma) were tested at final concentrations of 1 μg/ml. […] Substrate hydrolysis was monitored for 10 h at 405 nm using a Genios microtiter plate reader (Tecan, Männedorf, Switzerland) in the kinetic mode at 37° C.

[2] = test system: Z-QQP-pNA; experiment: Hydrolysis of paranitroanilide-derivatized substrate Z-QQP-pNA; format: biochemical; details: substrate 200 μM, pH 8.0 (data not shown)
Protocol: Hydrolysis of paranitroanilide-derivatized substrates—Paranitroanilide (pNA)-derivatized tripeptide substrates were chemically synthesized at >90% purity (21st Century Biochemicals, Marlborough, Mass.). The substrates obtained were Z-YPQ-pNA, Z-QQP-pNA, Z-LPY-pNA, Z-PFP-pNA, Z-PPF-pNA, where Z=benzyloxycarbonyl, Y=tyrosine, P=proline, Q=glutamine, L=leucine, and F=phenylalanine Suc-AAPF-pNA (SEQ ID NO: 4) was obtained from Sigma, where Suc=N-succinyl and A=alanine. The peptides were dissolved in 75-100% DMSO at 10 mM, and were used at a final concentration of 200 μM in 50 mM TrisHCl pH 8.0. Purified Rothia enzyme or subtilisin A from Bacillus licheniformis (Sigma) were tested at final concentrations of 1 μg/ml. Some experiments were conducted in the presence of inhibitors 4-(2-Aminoethyl) benzenesulfonyl fluoride (AEBSF), Aprotinin, E-64, EDTA, phenylmethanesulfonyl fluoride (PMSF) and Eglin C, which were tested at final concentrations of 10 mM, 0.08 mM, 0.1 mM, 1.5 mM, 1 mM, and 0.06-1.2 μM, respectively. Enzymes were preincubated with the inhibitors for 20 min before adding Suc-AAPF-pNA (SEQ ID NO: 4). Substrate hydrolysis was monitored for 10 h at 405 nm using a Genios microtiter plate reader (Tecan, Männedorf, Switzerland) in the kinetic mode at 37° C.

[3] = test system: mixed gliadins; experiment: Degradation of mixed gliadins (SDS-PAGE); format: biochemical, wheat; details: gliadins 250 μg/ml, enzyme 57 μg/ml
Protocol: FIG. 5A is a representative SDS-PAGE gel of non-digested gliadins (control) and Rmep-treated gliadins. Gliadins (250 μg/ml) in 50 mM Tris/HCl pH 8.0 were incubated with Rmep at 57 μg/ml. After 0, 15 min, 30 min and 2 h incubation 100 μl aliquots were removed, boiled and analyzed by SDS-PAGE and stained with COOMASSIE Brilliant Blue. The bold arrow (left) points to the position of the major band in the gliadin preparation; the thin arrow (right) to the 125 kDa band in the Rmep preparation, and the dotted arrows (right) to the gliadin degradation fragments.
FIG. 6A is a representative SDS-PAGE gel of non-digested gliadins (control) and subtilisin A-treated gliadins. Gliadins (250 μg/ml) in 50 mM Tris/HCl pH 8.0 were incubated with subtilisin A at 57 μg/ml. Experiments were conducted as described in the legend of FIG. 5 with subtilisin A instead of Rmep.
FIG. 8A is a representative SDS-PAGE gel of non-digested gliadins (control) and NattoK-treated gliadins. Mixed gliadins (G, 250 μg/ml) were incubated with NattoK (57 μg/ml) for 0, 15, 30 and 120 min. Left four lanes: controls without enzyme or gliadins, respectively, each at t=0 and 120 min. Arrow points to the major components in the gliadin mixture represented by α and γ-gliadins containing most of the immunogenic epitopes.
(§1) Degradation of mixed gliadins and the 33-mer peptide—Mixed gliadins were obtained from Sigma. A synthetic highly immunogenic α-gliadin derived 33-mer peptide (26) was synthesized at a purity of >90% (21st Century Biochemicals). Mixed gliadins or the 33-mer peptide (each at final concentration 250 μg/ml) were incubated with Rmep or subtilisin A (each at 57 μg/ml) in 50 mM TrisHCl, pH 8.0. After t=0, 15 min, 30 min, and 2 h, 100 μl sample aliquots were removed and boiled. Gliadin degradation was assessed by 4-12% SDS-PAGE followed by Coomassie staining, and 33-mer degradation was determined by RP-HPLC.

[4] = test system: α-gliadin derived 33-mer peptide; experiment: Degradation of the 33-mer peptide (RP-HPLC); format: biochemical; details: 33-mer 250 μg/ml, enzyme 57 μg/ml
Protocol: FIG. 8D is a representative chromatogram of the RP-HPLC analysis of the degradation of the gliadin-derived 33-mer (250 μg/ml) incubated for 0, 15, 30 and 120 min with NattoK 57 μg/ml).
as §1
Reversed-phase high performance liquid chromatography (RP-HPLC)—Separation of the 33-mer peptide and its fragments was achieved by RP-HPLC, using buffer A (0.1% trifluoroacetic acid) and buffer B (0.1% trifluoroacetic acid in 80% acetonitrile) at a gradient of 0-55% buffer B over 75 min time interval. The equipment used was an HPLC Model 715 (Gilson, Middleton, Wis.) and a C-18 column (TSK-GEL […], ODS-120T, TOSOHaas, Montgomeryville, Pa.) (22, 25).

[5] = test system: R5 epitopes (QQPFP and related pentapeptides) in mixed gliadins; experiment: R5 ELISA, gluten epitope elimination in gliadin digests; format: biochemical; details: gliadins 250 μg/ml, enzyme 57 μg/ml
Protocol: (§2) FIG. 8E and FIG. 8F show the assessment of the survival of epitopes in the gliadin-NattoK degradation mixture employing the R5 ELISA (FIG. 8E) or G12 ELISA (FIG. 8F) assays. Epitope abolishment in Mixed gliadins (250 μg/ml) were incubated with NattoK (57 μg/ml) for 0, 15, 30 and 120 min and then assayed by the R5 ELISA or G12 ELISA.
(§3) R5 and G12 ELISA assays—Gluten epitope elimination in the gliadin-Rmep and gliadin-subtilisin A digests was assessed using two sandwich ELISA assays employing the R5 monoclonal antibody (RIDASCREEN Gliadin, R-Biopharm, Darmstadt, Germany) or the G12 monoclonal antibody (AgraQuant® ELISA Gluten G12, Romer labs, Union, Mo.). To prevent high background values, the R5 plate wells were blocked with 1% skim milk in PBS prior to incubation with the samples. The assays were performed according to the manufacturers' instructions and as described (21, 24).
(§4) To further investigate this, the time courses of degradation of mixed gliadins and the highly immunogenic 33-mer α-gliadin peptide were determined. Furthermore, epitope elimination was monitored by two ELISA assays employing the R5 antibody recognizing QQPFP (SEQ ID NO: 40) and related pentapeptides (27, 28) and the G12 antibody recognizing QPQLPY (SEQ ID NO: 22) contained in the 33-mer peptide (29, 30). Data obtained with Rmep are shown in FIG. 5, and with subtilisin A in FIG. 6.

[6] = test system: G12 epitopes (QPQLPY) in mixed gliadins; experiment: G12 ELISA, gluten epitope elimination in gliadin digests; format: biochemical; details: gliadins 250 μg/ml, enzyme 57 μg/ml
Protocol: as §2, §3, §4

R5 epitope elimination (reduction in antibody binding) at t=0 [5]: 46% | decrease of G12 antibody binding after 30 min ([6]; 30 min): 65% | reduction of G12 antibody binding / G12 epitope degradation after 2 h [6]: 85%
Molecule: Rmep: DEAE pooled fraction F2 of R. mucilaginosa ATCC 25296 extract with highest gluten-degrading enzyme activity; contains subtilisins C6R5V9_9MICC and C6R5W1_9MICC
hydrolysis of Z-LPY-pNA [1]: could be demonstrated | hydrolysis of Z-QQP-pNA [2]: not hydrolyzed | incubation time within which mixed gliadins were degraded ([3]; 50 mM TrisHCl pH 8.0): ≤ 15 min | incubation time within which 33-mer peptide degradation was completed ([4]; pH 8.0): ≤ 30 min | R5 epitopes eliminated after 15 min ([5]; 15 min): virtually all

R5 epitope elimination (reduction in antibody binding) at t=0 [5]: 90% | reduction of G12 antibody binding / G12 epitope degradation after 2 h [6]: 45%
B1: subtilisin A: subtilisin A from Bacillus licheniformis (Sigma) (protein, listed as Bacillus licheniformis)
chain: MMRKKSFWLGMLTAFMLVFTMAFSDSASAAQPAKNVEKDYIVGFKSGVKTASVKKDIIKESGGKVDKQFRIINAAKAKLDKEALKEVKNDPDVAYVEEDHVAHALAQTVPYGIPLIKADKVQAQGFKGANVKVAVLDTGIQASHPDLNVVGGASFVAGEAYNTDGNGHGTHVAGTVAALDNTTGVLGVAPSVSLYAVKVLNSSGSGTYSGIVSGIEWATTNGMDVINMSLGGPSGSTAMKQAVDNAYARGVVVVAAAGNSGSSGNTNTIGYPAKYDSVIAVGAVDSNSNRASFSSVGAELEVMAPGAGVYSTYPTSTYATLNGTSMASPHVAGAAALILSKHPNLSASQVRNRLSSTATYLGSSFYYGKGLINVEAAAQ
hydrolysis of Z-LPY-pNA [1]: could be demonstrated | hydrolysis of Z-QQP-pNA [2]: not hydrolyzed | degradation of mixed gliadins in the t=0 sample ([3]; pH 8.0, t=0): near complete degradation | 33-mer peptide degradation after 2 h of incubation ([4]; 2 h): 74% | R5 epitope elimination within 15 min of incubation ([5]; 15 min): 100% | G12 epitope degradation at t=0 ([6]; t=0): 22%
